Values joined by “and” are separate entries in the source; they are usually repeats but may differ in a detail not shown here. Identical values can stand only once. Like-named read-outs stand apart in the source and are kept apart here.
How the values were obtained:
[1] = Part B: effect of strong CYP3A inhibitor itraconazole on single-dose pamiparib plasma PK (phase 1 DDI study); assay type: in vivo, human (patients with solid tumors); conditions: for half-life / AUC(0-inf) / AUC(0-t) / Tmax / Cmax: human; for half-life / AUC(0-inf) / AUC(0-t) / Tmax: plasma, oral; for AUC(0-inf): N = 12, read-out: pamiparib AUC0-inf, GLSM (% CV); for AUC(0-t): N = 12, read-out: pamiparib AUC0-tlast, GLSM (% CV); for Tmax: N = 12, read-out: pamiparib tmax, median (range); for Cmax: N = 12, plasma, read-out: pamiparib Cmax, GLSM (% CV)
Experimental: Part B of the core phase assessed the effect of the strong CYP3A inhibitor itraconazole on the PK of pamiparib in patients with solid tumors. All patients received a single dose of oral pamiparib 20 mg on days 1 and 7, and oral itraconazole 200 mg QD on days 3–8. The 20-mg pamiparib dose, the lowest dose strength available and one-sixth of the highest phase 1 dose (120 mg), was deemed sufficient to cover the plasma exposure increase due to complete blockade of CYP3A by itraconazole. Part B patients fasted for at least 8 h before and at least 4 h after pamiparib administration, except for day 7 upon which itraconazole administration occurred ~ 30 min after completing a meal and pamiparib administration followed within 5 min of itraconazole administration. Blood samples for PK analysis were obtained on days 1 and 7 at the same time points listed above for Part A. After completing the core phase in Part A and Part B, patients were offered participation in the extension phase, in which they were to receive pamiparib PO BID in 28-day cycles until disease progression, unacceptable toxicity, withdrawal of consent, or any other reason for discontinuation. […]
(§1) The safety population included all patients who received at least one dose of pamiparib. […] Plasma PK parameters were calculated from pamiparib concentration–time profiles using standard noncompartmental methods. PK parameters were calculated using Phoenix WinNonlin v6.4 or higher (Certara, Princeton, NJ, USA). […] Data for each treatment part were analyzed separately. Log-transformed AUC and Cmax values were analyzed using a linear mixed-effect model analysis assuming a fixed effect for treatment and a random effect for patients. The study design called for ~ 24 patients (12 in each part) to be enrolled to ensure at least 20 (10 in each part) completed the study. This sample size was based on the precedent set by other PK studies of a similar nature and was not based on power calculations.

[2] = Part B safety: adverse events (NCI CTCAE v5.0), safety population; assay type: in vivo, human (patients with solid tumors)
Experimental: Part B of the core phase assessed the effect of the strong CYP3A inhibitor itraconazole on the PK of pamiparib in patients with solid tumors. All patients received a single dose of oral pamiparib 20 mg on days 1 and 7, and oral itraconazole 200 mg QD on days 3–8. The 20-mg pamiparib dose, the lowest dose strength available and one-sixth of the highest phase 1 dose (120 mg), was deemed sufficient to cover the plasma exposure increase due to complete blockade of CYP3A by itraconazole. Part B patients fasted for at least 8 h before and at least 4 h after pamiparib administration, except for day 7 upon which itraconazole administration occurred ~ 30 min after completing a meal and pamiparib administration followed within 5 min of itraconazole administration. Blood samples for PK analysis were obtained on days 1 and 7 at the same time points listed above for Part A. After completing the core phase in Part A and Part B, patients were offered participation in the extension phase, in which they were to receive pamiparib PO BID in 28-day cycles until disease progression, unacceptable toxicity, withdrawal of consent, or any other reason for discontinuation.
(§2) Adverse events (AEs) were monitored throughout the study and were graded according to the National Cancer Institute Common Terminology Criteria v5.0.
as §1

[3] = parameters: method as in not given; conditions: in vitro and animal studies; ref not given; cited from earlier work
[4] = tested on: poly(ADP-ribose) synthesis in peripheral blood mononuclear cells; parameters: method as in earlier work; conditions: pamiparib doses of 10 mg or higher; cited from earlier work
P-glycoprotein = tested on: P-glycoprotein; parameters: method as in PMID 32652442; conditions: cited from earlier work
[5] = Part A safety: adverse events (NCI CTCAE v5.0), safety population; assay type: in vivo, human (patients with advanced solid tumors)
Experimental: (§3) This was an open-label, parallel-group, phase 1 study consisting of a 2-part core phase and an extension phase. Only results for the core phases are reported herein (Supplementary Fig. 1). […] Blood samples for PK analysis were obtained on days 1 and 10 at predose, and at 0.5, 1, 2, 4, 6, 9, 12, 24, and 48 h postdose. Pamiparib plasma concentrations were determined using a validated liquid chromatography–mass spectrometry/mass spectrometry method (lower limit of quantification 1.0 ng/mL) at Covance Laboratory Services (Salt Lake City, Utah).
as §2, §1

[6] = parameters: method as in earlier work; conditions: cited from earlier work
[7] = Part A: effect of strong CYP3A inducer rifampin on single-dose pamiparib plasma PK (phase 1 DDI study); assay type: in vivo, human (patients with advanced solid tumors); conditions: for Tmax: read-out: pamiparib tmax, median (range)
Experimental: as §3, with “Utah). […]” for “Utah).”
as §1

[8] = tested on: cytochromes P450 3A (CYP3A) and P450 2C8; parameters: method as in unpublished data; conditions: in vitro phenotyping study; ref unpublished data; cited from earlier work
[9] = pamiparib 20 mg alone, day 1, reference
[10] = pamiparib 20 mg day 7 with itraconazole 200 mg QD, test
[11] = Part B (N = 13; N = 12 for pamiparib with itraconazole), by treatment period
[12] = Part A (N = 12), by treatment period
[13] = Part A, rifampin 600 mg QD coadministration

Question: What does the source list for `C[C@]12CCCN1CC1=NNC(=O)c3cc(F)cc4[nH]c2c1c34` [Pamiparib]?
Answer: half-life ([1]; 20 mg, pamiparib 20 mg alone, day 1, reference, N = 12, read-out: pamiparib t1/2, median (range) (converted)): 9.3 h; AUC(0-inf) [1, 9]: 8440 ng·h/mL; AUC(0-t) [1, 9]: 7840 ng·h/mL; Tmax [1, 9]: 2 h; AUC(0-inf) [1, 10]: 8380 ng·h/mL; AUC(0-t) [1, 10]: 7790 ng·h/mL; half-life ([1]; pamiparib 20 mg day 7 with itraconazole 200 mg QD, test, N = 12, read-out: pamiparib t1/2, median (range) (converted)): 11.2 h; Tmax [1, 10]: 1 h; half-life ([1]; pamiparib 20 mg in combination with itraconazole, read-out: pamiparib mean t1/2 (converted)): 12 h; Cmax ([1]; single oral pamiparib 20 mg alone, day 1, reference): 665 ng/mL; Cmax ([1]; single oral pamiparib 20 mg on day 7 with itraconazole 200 mg QD (days 3-8), test): 699 ng/mL; pamiparib mean t1/2 ([1]; pamiparib 20 mg alone): 11.9 h; All TEAEs (any grade), patients [2, 11]: 2 (15.4) n (%); Any treatment-related TEAE, patients [2, 11]: 1 (7.7) n (%); Grade >= 3 TEAE, patients [2, 11]: 0 n (%); Serious AE, patients [2, 11]: 0 n (%); Treatment-related TEAE related to both, patients [2, 11]: 0 n (%); Treatment-related TEAE related to itraconazole only, patients [2, 11]: 0 n (%); Treatment-related TEAE related to pamiparib only, patients [2, 11]: 1 (7.7) n (%); Serious AE related to both, patients ([2]; Part B, by treatment period): 0 n (%); Serious AE related to itraconazole only, patients ([2]; Part B, by treatment period): 0 n (%); Serious AE related to pamiparib only, patients ([2]; Part B, by treatment period): 0 n (%); tolerability ([2]; single dose 20 mg pamiparib alone or coadministered with 200 mg itraconazole): well tolerated; clastogenicity [3]: clastogenic activity; sustained inhibition of poly(ADP-ribose) synthesis in peripheral blood mononuclear cells [4]: ~ 80%; P-glycoprotein substrate status (P-glycoprotein): not a substrate of P-glycoprotein; All TEAEs (any grade), patients [5, 12]: 1 (8.3) n (%); Any treatment-related TEAE, patients [5, 12]: 0 n (%); Grade >= 3 TEAE, patients [5, 12]: 0 n (%); Serious AE, patients [5, 12]: 0 n (%); Treatment-related TEAE related to both, patients [5, 12]: 0 n (%); Treatment-related TEAE related to pamiparib only, patients [5, 12]: 0 n (%); Treatment-related TEAE related to rifampin only, patients [5, 12]: 0 n (%); tolerability ([5]; single dose 60 mg pamiparib alone or coadministered with 600 mg rifampin): well tolerated; accumulation ratio for AUC (95% CI) ([6]; 60 mg BID): 2.37 (95% CI, 1.61–3.50); accumulation ratio for Cmax (95% CI) ([6]; 60 mg BID): 1.99 (95% CI, 1.47–2.69); geometric mean half-life ([6]; 60 mg BID): 13.5 h; tolerability ([6]; first-in-human study): well tolerated; median time to maximum concentration (tmax) ([6]; first-in-human study, oral): 1 to 2 h; anti-tumor activity ([6]; patients with high-grade epithelial non-mucinous ovarian cancer): preliminary anti-tumor activity; reduction of pamiparib plasma exposure (AUC) with rifampin coadministration ([7]; Part A, AUC0-tlast to AUC0-inf): 38–43%; reduction of pamiparib AUC0-inf (geometric mean) with rifampin versus day 1 [7, 13]: ~43%; reduction of pamiparib AUC0-tlast (geometric mean) with rifampin versus day 1 [7, 13]: ~ 38% and 38%; half-life ([7]; human, plasma, oral, 60 mg, Part A, pamiparib 60 mg alone, day 1, reference, N = 9, read-out: pamiparib t1/2, median (range) (converted)): 13.4 h; half-life ([7]; human, plasma, oral, 60 mg, Part A, pamiparib 60 mg alone, read-out: pamiparib mean t1/2 (converted)): 12.5 h; half-life ([7]; human, plasma, oral, Part A, pamiparib 60 mg day 10 with rifampin 600 mg QD, test, N = 11, read-out: pamiparib t1/2, median (range) (converted)): 7.7 h; half-life ([7]; human, plasma, oral, Part A, pamiparib 60 mg in combination with rifampin, read-out: pamiparib mean t1/2 (converted)): 7.94 h; AUC(0-inf) ([7]; human, plasma, oral, Part A, pamiparib 60 mg alone, day 1, reference, N = 9, read-out: pamiparib AUC0-inf, GLSM (% CV)): 29500 ng·h/mL; AUC(0-t) ([7]; human, plasma, oral, Part A, pamiparib 60 mg alone, day 1, reference, N = 11, read-out: pamiparib AUC0-tlast, GLSM (% CV)): 28800 ng·h/mL; Tmax ([7]; human, plasma, oral, Part A, pamiparib 60 mg alone, day 1, reference, N = 11): 2 h; Tmax ([7]; human, plasma, oral): 2 h; Cmax ([7]; human, Part A, single oral pamiparib 60 mg alone, day 1, reference, N = 11, plasma, read-out: pamiparib Cmax, GLSM (% CV)): 1990 ng/mL; enzymes mediating metabolism [8]: primarily mediated by cytochromes P450 3A (CYP3A) and P450 2C8

Reference: paper PMC8149352 (Cancer Chemotherapy and Pharmacology, 2021)
